Measurements published in patent publication US20090105349A1, “ANDROGEN MODULATORS” (WARNER-LAMBERT COMPANY LLC, priority 2004, published 2009).
Numbering of substitutions follows the chain as printed. Where two headings read alike, the source gives them in different places.

Key:
[1] = target: T1, androgen receptor in MDA-MB453-MMTV clone 54-19 cells (Homo sapiens, UniProt P10275); assay: AR antagonist cell assay (MMTV-luciferase reporter); assay type: cell-based
T1 sequence (P10275 1-920 Q868H): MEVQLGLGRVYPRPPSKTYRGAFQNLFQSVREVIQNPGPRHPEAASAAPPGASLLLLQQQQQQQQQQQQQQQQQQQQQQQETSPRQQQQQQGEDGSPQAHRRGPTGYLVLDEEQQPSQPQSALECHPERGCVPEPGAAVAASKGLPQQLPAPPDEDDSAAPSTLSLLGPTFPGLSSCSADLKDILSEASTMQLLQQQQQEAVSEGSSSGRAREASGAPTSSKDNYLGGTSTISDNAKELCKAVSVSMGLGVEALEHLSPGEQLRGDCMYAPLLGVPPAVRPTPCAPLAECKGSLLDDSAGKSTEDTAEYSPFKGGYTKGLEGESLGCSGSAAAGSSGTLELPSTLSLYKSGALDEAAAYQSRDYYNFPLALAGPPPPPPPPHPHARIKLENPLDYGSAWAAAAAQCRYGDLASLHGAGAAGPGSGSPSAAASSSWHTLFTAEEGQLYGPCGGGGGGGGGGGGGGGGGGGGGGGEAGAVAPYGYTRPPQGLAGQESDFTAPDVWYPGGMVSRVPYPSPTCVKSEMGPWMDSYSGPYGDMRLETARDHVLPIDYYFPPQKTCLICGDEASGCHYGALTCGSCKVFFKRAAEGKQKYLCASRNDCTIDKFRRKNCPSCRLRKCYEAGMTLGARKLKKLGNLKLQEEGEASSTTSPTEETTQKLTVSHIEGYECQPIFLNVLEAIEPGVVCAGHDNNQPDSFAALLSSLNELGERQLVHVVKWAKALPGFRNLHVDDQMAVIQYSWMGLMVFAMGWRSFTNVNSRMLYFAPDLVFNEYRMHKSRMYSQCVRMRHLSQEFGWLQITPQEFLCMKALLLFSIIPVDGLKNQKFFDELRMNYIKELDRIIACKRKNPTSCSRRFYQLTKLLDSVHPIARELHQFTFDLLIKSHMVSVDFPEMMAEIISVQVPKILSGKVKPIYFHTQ
Method: The compounds ability to antagonize the effects of androgen on the androgen receptor were determined in a whole cell assay as described immediately below.
This cell line is a stable transfected cell line with MDA-MB453 cell background (a human breast tumor cell line expressing androgen receptor). A MMTV minimal promoter containing ARE was first cloned in front of a firefly luciferase reporter gene. Then the cascade was cloned into transfection vector pUV120puro. […] Puromycin resistant stable cell line was selected.
Plating medium: DMEM (phenol red free), 10% charcoal treated HyClone serum, 1% L-glutamine
Assay medium: DMEM (phenol red free), 1% charcoal treated HyClone serum, 1% L-glutamine, and 1% penicillin/streptomycin
Assay procedure: • 1. Cells are maintained in culture medium, splitting cells when they reach 80-90% confluence • 2. To test compounds, 10,000 cells/well are plated to opaque 96 cell culture plate in 100 ul/well plating medium, culture for overnight at 37° C. in cell culture incubator • 3. […] Add 10 ul/well freshly prepared DHT (final concentration at […]) to each well, incubate at 37° C. for 17 hr (overnight) • 5.
The results are reported as the mean of multiple tests as described below (the numbers of tests are indicated in the footnote). N.D. denotes that the compound was not tested.

[2] = target: T2, hAR (human androgen receptor) (Homo sapiens, UniProt P10275); assay: Competitive hAR binding assay with 3H-DHT tracer
T2 construct: made in house; host or cells: baculovirus/Sf9 insect cells (crude extract)
T2 sequence (P10275 1-920): T1 sequence (P10275 1-920 Q868H) with H868Q
Method: The description below describes how the assay was carried out.
Competitive binding analysis was performed on baculovirus/Sf9 generated hAR extracts in the presence or absence of different concentrations of test agent and a fixed concentration of ^3H-dihydrotestosterone (3H-DHT) as tracer. […] Subsequently, the binding reactions are washed three times to completely remove excess unbound ^3H-DHT. hAR bound ^3H-DHT levels are determined in the presence of compounds (i.e. competitive binding) and compared to levels bound when no competitor is present (i.e. maximum binding). Compound binding affinity to the hAR is expressed as the concentration of compound at which one half of the maximum binding is inhibited.

[3] = MDA-MB453-MMTV clone 54-19, inhibition of DHT induced luciferase, 17 hr; mean of multiple tests; read-out: AR Cell IC50
[4] = baculovirus/Sf9 hAR extract, 1 nM 3H-DHT, one hour at 4° C, mean of multiple tests, read-out: AR Binding IC50
[5] = read-out: AR Cell IC50; MDA-MB453-MMTV clone 54-19, inhibition of DHT induced luciferase, 17 hr; mean of multiple tests

Structure (SMILES) | IC50 [1, 3] | IC50 [2, 4] | IC50 [1, 5] | IC50 [2]
CCCc1ccccc1Oc1ccc(C#N)cc1Cl [Example 17, 3-Chloro-4-(2-propyl-phenoxy)-benzonitrile] | 861 nM | 102 nM |  | 
COc1cccc(F)c1Oc1ccc(C#N)cc1Cl [Example 19, 3-Chloro-4-(2-fluoro-6-methoxy-phenoxy)-benzonitrile] |  |  | 52 nM | 28 nM
N#Cc1ccc(Oc2ccccc2C(F)(F)F)c(Cl)c1 [Example 20, 3-Chloro-4-(2-trifluoromethyl-phenoxy)-benzonitrile] |  | 253 nM | 51 nM | 
CCc1ccccc1Oc1ccc(C#N)cc1Cl [Example 23, 3-Chloro-(2-ethyl-phenoxy)-benzonitrile] | > 1000 nM | 227 nM |  | 
N#Cc1ccc(Oc2ccc(F)cc2F)c(Cl)c1 [Example 25, 3-Chloro-4-(2,4-difluoro-phenoxy)-benzonitrile] | 792 nM | 371 nM |  | 
COc1cccc(OC)c1Oc1ccc(C#N)cc1Cl [Example 26, 3-Chloro-4-(2,6-dimethoxy-phenoxy)-benzonitrile] |  | 106 nM | 54 nM | 
CCOc1cc(C)ccc1Oc1ccc(C#N)cc1Cl [Example 30, 3-Chloro-4-(2-ethoxy-4-methyl-phenoxy)-benzonitrile] | 869 nM | 42 nM |  | 
N#Cc1ccc(Oc2cccc3c2CCCC3)cc1Cl [Example 32, 2-Chloro-4-(5,6,7,8-tetrahydro-naphthalen-1-yloxy)-benzonitrile] | 473 nM |  |  | 94 nM
COc1ccc(C)cc1Oc1ccc(C#N)c(Cl)c1 [Example 33, 2-Chloro-4-(2-methoxy-5-methyl-phenoxy)-benzonitrile] |  | 232 nM | 42 nM | 
CCc1cccc(Oc2ccc(C#N)c(Cl)c2)c1 [Example 34, 2-Chloro-4-(3-ethyl-phenoxy)-benzonitrile] | 924 nM | 181 nM |  | 
CCc1ccccc1Oc1ccc(C#N)c(Cl)c1 [Example 35, 2-Chloro-4-(2-ethyl-phenoxy)-benzonitrile] | 360 nM |  |  | 20 nM
N#Cc1ccc(Oc2ccc(F)cc2F)cc1Cl [Example 36, 2-Chloro-4-(2,4-difluoro-phenoxy)-benzonitrile] | 144 nM |  |  | 52 nM
COc1cccc(Oc2ccc(C#N)c(Cl)c2)c1 [Example 37, 2-Chloro-4-(3-methoxy-phenoxy)-benzonitrile] | 139 nM | 114 nM |  | 
COc1cccc(OC)c1Oc1ccc(C#N)c(Cl)c1 [Example 38, 2-Chloro-4-(2,6-dimethoxy-phenoxy)-benzonitrile] |  | 249 nM | 19 nM | 
CC(C)c1ccccc1Oc1ccc(C#N)c(Cl)c1 [Example 39, 2-Chloro-4-(2-isopropyl-phenoxy)-benzonitrile] | 254 nM |  |  | 43 nM
N#Cc1ccc(Oc2cccc3ccccc23)cc1Cl [Example 40, 2-Chloro-4-(naphthalen-1-yloxy)-benzonitrile] |  |  | 90 nM | 31 nM
Cc1cccc(Oc2ccc(C#N)c(Cl)c2)c1 [Example 41, 2-Chloro-4-m-tolyloxy-benzonitrile] | 120 nM |  |  | 86 nM
COc1ccccc1Oc1ccc(C#N)c(Cl)c1 [Example 42, 2-Chloro-4-(2-methoxy-phenoxy)-benzonitrile] | 387 nM |  |  | 2 nM
C=CCc1cccc(C)c1Oc1ccc(C#N)c(Cl)c1 [Example 44, 4-(2-Allyl-6-methyl-phenoxy)-2-chloro-benzonitrile] | 282 nM |  |  | 79 nM
Cc1ccc(Oc2ccc(C#N)c(Cl)c2)c(C)c1 [Example 45, 2-Chloro-4-(2,4-dimethyl-phenoxy)-benzonitrile] | 721 nM |  |  | 25 nM
N#CCCc1ccc(Oc2ccc(C#N)c(Cl)c2)cc1 [Example 46, 2-Chloro-4-[4-(2-cyano-ethyl)-phenoxy]-benzonitrile] | 197 nM | 304 nM |  | 
COc1cc(C)ccc1Oc1ccc(C#N)c(Cl)c1 [Example 47, 2-Chloro-4-(2-methoxy-4-methyl-phenoxy)-benzonitrile] | > 1000 nM |  |  | 4 nM
CCC(C)c1ccccc1Oc1ccc(C#N)c(Cl)c1 (stereo not drawn) [Example 48, 4-(2-sec-Butyl-phenoxy)-2-chloro-benzonitrile] | > 1000 nM | 184 nM |  | 
Cc1ccc(C(C)C)c(Oc2ccc(C#N)c(Cl)c2)c1 [Example 49, 2-Chloro-4-(2-isopropyl-5-methyl-phenoxy)-benzonitrile] | 784 nM |  |  | 79 nM
Cc1cc(C)c(Oc2ccc(C#N)c(Cl)c2)c(C)c1 [Example 50, 2-Chloro-4-(2,4,6-trimethyl-phenoxy)-benzonitrile] | 214 nM |  |  | 22 nM
C=CCc1ccccc1Oc1ccc(C#N)c(Cl)c1 [Example 51, 4-(2-Allyl-phenoxy)-2-chloro-benzonitrile] | 252 nM |  |  | 62 nM
N#Cc1ccc(Oc2ccc(F)cc2)cc1Cl [Example 52, 2-Chloro-4-(4-fluoro-phenoxy)-benzonitrile] | 261 nM | 152 nM |  | 
Cc1ccc(C(C)C)cc1Oc1ccc(C#N)c(Cl)c1 [Example 53, 2-Chloro-4-(5-isopropyl-2-methyl-phenoxy)-benzonitrile] | 621 nM | 192 nM |  | 
COc1cccc(Oc2ccc(C#N)c(Cl)c2)c1OC [Example 54, 2-Chloro-4-(2,3-dimethoxy-phenoxy)-benzonitrile] |  | 157 nM | 26 nM | 
COc1cc(F)ccc1Oc1ccc(C#N)c(Cl)c1 [Example 56, 2-Chloro-4-(4-fluoro-2-methoxy-phenoxy)-benzonitrile] |  |  | 11 nM | 6 nM
